# Data reported in PMC9728921, “Characterization of a KDM5 small molecule inhibitor with antiviral activity against hepatitis B virus” (PLOS ONE, 2022).
# “Also recorded” adds a separate entry of the source.
# Key:
# DOT1L = target: T1, DOT1L (Homo sapiens, UniProt Q8TEK3); assay: Histone methyltransferase enzymatic assay, DOT1L; assay type: biochemical; conditions: enzyme conc. 2 nM
# T1 construct: 1-416; BRIC
# Experimental: Histone methyltransferase assays were performed in 96-well half-area optiplates (PerkinElmer) at room temperature. All concentrations are final unless noted otherwise. Compounds were serially diluted in DMSO and the final DMSO concentration was 1%. A 24 μL reaction mixture contained compound, enzyme, 200 nM of nucleosome or histone substrate, 400 nM ^3H-SAM (83.1 Ci/mmol), 50 mM Tris-HCl (pH 8.0), 50 mM NaCl, 5 mM MgCl2, 1 mM DTT, and 0.01% Tween-20. The plate was sealed, mixed on a Titramax plate shaker at 1200 rpm for 30 sec, and incubated at room temperature for 60 min. The reaction was quenched by addition of 24 μL mixture containing 5 mg/mL PVT-PEI beads and 300 μM unlabeled SAM in water. The plate was sealed, mixed as previously noted, incubated overnight, and read on a TopCount plate reader (PerkinElmer).
# (§1) Data was analyzed using GraphPad Prism 6.0 (La Jolla, CA). […] IC50 values were calculated as an average of at least two independent experiments.
# KDM7B = KDM7B (Homo sapiens, UniProt Q9UPP1); assay: KDM7B enzymatic assay (AlphaLISA); assay type: biochemical
# Sequence of KDM7B (Q9UPP1 whole entry): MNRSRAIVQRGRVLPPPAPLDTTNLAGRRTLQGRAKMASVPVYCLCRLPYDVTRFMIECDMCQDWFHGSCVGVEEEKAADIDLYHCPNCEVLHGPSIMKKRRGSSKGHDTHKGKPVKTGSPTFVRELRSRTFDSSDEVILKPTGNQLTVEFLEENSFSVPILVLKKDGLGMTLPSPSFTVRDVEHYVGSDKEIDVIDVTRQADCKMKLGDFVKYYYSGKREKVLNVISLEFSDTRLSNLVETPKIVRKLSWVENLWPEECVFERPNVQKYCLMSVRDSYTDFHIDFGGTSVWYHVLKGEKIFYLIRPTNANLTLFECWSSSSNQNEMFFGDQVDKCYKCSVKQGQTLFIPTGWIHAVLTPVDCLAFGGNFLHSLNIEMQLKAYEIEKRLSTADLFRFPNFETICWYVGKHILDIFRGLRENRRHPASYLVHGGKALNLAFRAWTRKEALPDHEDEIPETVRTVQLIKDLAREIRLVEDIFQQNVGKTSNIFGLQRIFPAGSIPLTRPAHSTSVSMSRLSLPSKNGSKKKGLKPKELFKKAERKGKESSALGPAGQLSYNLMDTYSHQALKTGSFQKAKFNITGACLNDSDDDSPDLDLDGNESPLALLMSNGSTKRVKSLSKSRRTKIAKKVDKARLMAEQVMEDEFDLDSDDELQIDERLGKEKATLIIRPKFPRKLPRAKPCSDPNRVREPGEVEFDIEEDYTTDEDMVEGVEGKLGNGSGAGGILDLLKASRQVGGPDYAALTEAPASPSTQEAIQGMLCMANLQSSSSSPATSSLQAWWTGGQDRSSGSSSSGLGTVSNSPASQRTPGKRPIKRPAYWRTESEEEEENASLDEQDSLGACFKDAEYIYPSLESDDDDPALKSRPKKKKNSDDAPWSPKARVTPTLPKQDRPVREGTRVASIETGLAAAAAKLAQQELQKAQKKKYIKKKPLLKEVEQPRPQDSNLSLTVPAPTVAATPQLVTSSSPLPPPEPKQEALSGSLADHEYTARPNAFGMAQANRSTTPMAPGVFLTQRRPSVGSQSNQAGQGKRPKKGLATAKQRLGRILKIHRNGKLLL
# Experimental: (§2) The following assay protocol was used for all histone demethylases tested except KDM1A, KDM5A, B, and D, which are described below. Compounds were serially diluted into a 384-well Alpha plate as a DMSO solution and mixed with 5 μL reaction buffer (buffer A) containing 50 mM HEPES (pH 7.0), 0.1% BSA, and 0.003% Tween-20. The enzyme of interest was pre-incubated with 15 μM of Fe^2+ for 10 min (except 30 min for KDM2B) in reaction buffer A. 5 μL of the enzyme mixture was added to each of the compound-containing wells and incubated for 10 min. The reaction was started by addition of a 5 μL mixture containing 300 nM peptide substrate, 75 μM L-ascorbic acid, and 30 μM α-ketoglutarate in buffer A. This final 15 μL of reaction mixture was incubated for 20 min for KDM5B and 1 hour for the other KDM enzymes. The reaction was quenched with 10 μL of diluted AlphaLISA Acceptor beads (1:400) in Epigenetics Buffer and incubated for 60 min. The Donor beads were diluted 1:400 into Epigenetics Buffer in the dark and 10 μL of this was added to each well and incubated for another 60 min in the dark. The assay plates were read on an Enspire plate reader (PerkinElmer) using a standard AlphaLISA program.
# as §1
# KDM6B = KDM6B (Homo sapiens, UniProt O15054); assay: KDM6B enzymatic assay (AlphaLISA); assay type: biochemical
# Sequence of KDM6B (O15054 whole entry): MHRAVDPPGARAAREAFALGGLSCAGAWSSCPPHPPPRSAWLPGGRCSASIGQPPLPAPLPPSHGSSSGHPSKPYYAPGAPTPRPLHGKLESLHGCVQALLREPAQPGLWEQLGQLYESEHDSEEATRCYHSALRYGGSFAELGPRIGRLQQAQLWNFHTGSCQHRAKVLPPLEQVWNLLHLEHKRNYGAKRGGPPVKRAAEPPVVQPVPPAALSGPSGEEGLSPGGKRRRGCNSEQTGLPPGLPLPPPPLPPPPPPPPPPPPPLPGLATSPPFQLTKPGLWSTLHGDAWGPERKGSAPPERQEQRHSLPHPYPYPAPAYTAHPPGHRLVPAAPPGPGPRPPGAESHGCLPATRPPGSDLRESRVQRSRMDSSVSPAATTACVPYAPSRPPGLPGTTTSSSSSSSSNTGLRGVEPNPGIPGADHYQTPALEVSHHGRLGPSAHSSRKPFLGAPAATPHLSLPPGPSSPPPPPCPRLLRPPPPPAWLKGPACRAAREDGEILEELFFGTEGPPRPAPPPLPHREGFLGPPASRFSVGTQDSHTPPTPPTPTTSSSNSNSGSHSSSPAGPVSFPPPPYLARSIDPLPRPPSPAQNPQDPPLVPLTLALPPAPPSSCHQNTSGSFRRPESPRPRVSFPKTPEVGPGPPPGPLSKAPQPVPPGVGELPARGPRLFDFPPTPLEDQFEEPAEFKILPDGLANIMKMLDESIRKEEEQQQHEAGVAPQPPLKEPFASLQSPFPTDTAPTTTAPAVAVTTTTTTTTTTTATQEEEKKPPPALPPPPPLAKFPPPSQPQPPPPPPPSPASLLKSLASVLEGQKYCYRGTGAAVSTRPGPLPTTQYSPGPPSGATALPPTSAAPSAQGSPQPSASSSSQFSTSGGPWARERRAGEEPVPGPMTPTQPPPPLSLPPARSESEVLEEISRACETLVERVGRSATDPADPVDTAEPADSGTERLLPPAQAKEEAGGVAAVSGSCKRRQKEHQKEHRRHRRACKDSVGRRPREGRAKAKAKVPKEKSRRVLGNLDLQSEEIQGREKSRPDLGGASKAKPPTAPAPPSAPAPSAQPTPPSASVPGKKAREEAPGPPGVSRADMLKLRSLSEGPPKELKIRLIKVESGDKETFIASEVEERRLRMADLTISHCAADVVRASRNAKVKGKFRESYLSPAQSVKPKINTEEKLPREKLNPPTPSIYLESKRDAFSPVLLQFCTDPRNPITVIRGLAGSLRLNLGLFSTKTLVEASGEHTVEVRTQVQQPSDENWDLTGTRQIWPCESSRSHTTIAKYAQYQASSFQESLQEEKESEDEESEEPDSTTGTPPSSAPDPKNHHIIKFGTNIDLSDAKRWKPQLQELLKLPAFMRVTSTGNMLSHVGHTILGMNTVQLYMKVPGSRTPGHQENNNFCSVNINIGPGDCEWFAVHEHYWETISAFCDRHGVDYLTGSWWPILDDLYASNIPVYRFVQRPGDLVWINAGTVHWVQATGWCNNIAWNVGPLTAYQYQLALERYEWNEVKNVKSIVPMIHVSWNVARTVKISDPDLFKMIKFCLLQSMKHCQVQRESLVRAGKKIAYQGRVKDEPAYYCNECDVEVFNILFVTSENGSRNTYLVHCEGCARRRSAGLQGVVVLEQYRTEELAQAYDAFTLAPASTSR
# Experimental: as §2, §1
# [1] = system: host and viral transcriptomes in PHH; assay: RNA-seq of HBV-infected PHH; assay type: cell-based, human; conditions: 0.03, 0.3, or 10 μM; days 1, 3, 10, 13
# Experimental: (D) Hallmark Gene Set. […] For comparison, downregulation of HBV mRNA for same dose and time regiment is shown at the top.
# Library building and sequencing for RNA-seq of PHH and rat liver was performed on all samples at EA Genomics/Q2 Solutions (Morrisville, NC). Approximately 100 mg of rat liver tissue from the left later lobe was flash frozen immediately after collection. PHH were lysed into RLT buffer (Qiagen; 79216) and immediately frozen. Liver/PHH samples were homogenized in QIAzol Lysis Reagent (79306) and after addition of chloroform the samples were separated into aqueous and organic phases by centrifugation. Ethanol was added to the upper aqueous phase and the sample was applied to an RNeasy Mini spin column (74104) for purification and RNA eluted with water. Libraries were prepared using the Illumina TruSeq stranded mRNA sample preparation kit according to the manufacturer’s protocol (Illumina, Inc., Hayward, CA; RS-122-2103). Approximately 30 million 2 x 50 bp paired-end reads were collected per sample using the Illumina HiSeq2000 sequencing platform. Sequencing reads were aligned to the human, rat, or HBV genomes by STAR [49]. The Bioconductor packages edgeR [50] and limma were used to normalize sequence count data (counts per million; cpm) and conduct differential gene expression analysis. The false discovery rate (FDR) was calculated using the Benjamini-Hochberg method.
# [2] = assay type: in vivo, human
# Description: Nevertheless, any further clinical evaluation of KMD5 inhibitors in other therapeutic areas should pay close attention to hepatotoxic effects, which might me associated with inhibition of the biologic target even at low levels of engagement.
# For the clinical studies mentioned above, all patients signed an informed consent form before screening and in accordance with local regulatory and ethics committee requirements.
# HBV (genotype C, GTC) = assay: HBV mouse efficacy model (uPA-SCID mice with humanized livers), serum HBV DNA and HBsAg; assay type: in vivo; conditions: 30 or 100 mg/kg p.o. qd x 7d, one week on one week off, 56 days
# Experimental: The in vivo and in vitro hepatocyte infection model portions of the study were performed by PhoenixBio (Higashi-Hiroshima, Japan). […] Mice were infected with HBV GTC virus (PhoenixBio; PBB004, Lot #160205) and had serum HBV titer levels greater than 1.0E+08 copies/mL seven days prior to study initiation. HBV-infected mice were treated once daily (p.o.) for seven days (Day 0–6) with deionized water for acclimation. […] Fifty μL of blood was collected from animals under isoflurane anesthesia via the retro-orbital plexus/sinus and centrifuged for serum collection for HBsAg and HBV DNA measurements described below. At termination of study (Day 56), 100–200 mg of tissue was harvested from the left lateral liver lobe of all animals.
# For in vivo mouse studies, serum HBsAg concentrations were determined by SRL, Inc. (Tokyo, Japan) based on the Chemiluminescent Enzyme Immuno Assay (CLEIA) developed by Fujirebio (Lumipulse® Presto II).
# HBV DNA was extracted from 5 μL of serum using the SMITEST EX-R&D Nucleic Acid Extraction Kit (Medical & Biological Laboratories, CO. LTD, Nagoya, Japan) and dissolved in 20 μL nuclease-free water (Thermo Fisher Scientific Inc., Waltham, MA). […] The average serum HBV DNA level was calculated from the values of the two separate wells. […]
# Tolerability in rats = assay type: in vivo; conditions: GS-5801 doses tested (0.3-30 mg/kg p.o. once daily for five days)
# Experimental: Animals were sacrificed 24 hours post final dose and approximately 100 mg of liver (left lateral lobe), lung, and kidney tissue was collected. Additionally, one mL of venous blood for PBMC isolation was collected into K2EDTA vacutainer tubes (Thermo Fisher; BD367835). […] Diluted whole blood was layered onto an equal volume of HISTOPAQUE-1077 (Sigma; 10771) gradient medium and centrifuged at 400 x g for 30 minutes with the centrifuge brake switch off. PBMCs were collected at the plasma-HISTOPAQUE-1077 interface and washed three times with DPBS by centrifugation at 500 x g for 10 minutes. Tissue samples and PBMCs were snap frozen using liquid nitrogen and stored at -80°C for subsequent H3K4me3:H3 analysis by ELISA.
# T1 sequence (Q8TEK3 1-416): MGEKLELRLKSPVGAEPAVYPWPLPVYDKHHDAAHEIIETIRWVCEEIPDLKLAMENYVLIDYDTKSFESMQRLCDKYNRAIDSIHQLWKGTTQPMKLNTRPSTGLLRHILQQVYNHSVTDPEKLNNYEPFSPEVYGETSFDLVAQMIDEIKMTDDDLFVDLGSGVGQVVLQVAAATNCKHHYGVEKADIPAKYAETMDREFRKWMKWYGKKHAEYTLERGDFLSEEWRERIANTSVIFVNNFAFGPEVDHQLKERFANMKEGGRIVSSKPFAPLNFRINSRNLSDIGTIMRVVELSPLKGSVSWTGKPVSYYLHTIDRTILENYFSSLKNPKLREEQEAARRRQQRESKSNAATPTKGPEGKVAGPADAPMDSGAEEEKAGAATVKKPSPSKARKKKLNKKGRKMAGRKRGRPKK
IC50 (DOT1L) [µM],Fold Selectivity Compared to KDM5A (KDM7B; IC50 of KDM7B over KDM5A),IC50 (KDM7B; enzyme concentration 2.5 nM) [µM],Fold Selectivity Compared to KDM5A (KDM6B; IC50 of KDM6B over KDM5A),"IC50 (KDM6B; enzyme concentration 1 nM, read-out: IC50) [µM]",SMILES,levels of HBV mRNA as measured by RNA-seq [1],"HBV antigen level decreases ([2]; HBV patients, to be published elsewhere)","liver toxicity ([2]; human, in vivo)","antiviral efficacy: serum HBsAg and HBV DNA (HBV (genotype C, GTC))",adverse effects (Tolerability in rats)
> 100,"> 1,110 fold",0.4,"> 17,200 fold",6.2,CCN(CCN(C)C)C(=O)CNCc1cc(C(=O)O)ccn1 [GS-080],–,–,–,–,–
–,–,–,–,–,CCOC(=O)c1ccnc(CNCC(=O)N(CC)CCN(C)C)c1 [GS-5801],decreased after GS-5801 treatment in a dose and time dependent manner,absence of any HBV antigen level decreases,"dose limiting, reversible liver toxicity",did not result in changes in the amounts of HBsAg or HBV DNA; also recorded: did not have antiviral activity at either dose tested,no adverse effects were observed
